These results are taken from patent publication US20250025500A1, “PHOSPHATASE INHIBITORS AS NK CELLS MODULATORS FOR THE TREATMENT OF CANCER” (Kanyr Pharma Inc., priority 2021, published 2025).

What all share (assay type): cell-based, Human
Assay [1] has as its system NK-92 cells. Kind of assay: qRT-PCR of lytic granule and IFNG mRNA in NK-92. The note with it: steady state. The method, then: Total RNA was isolated with Qiagen™ RNeasy® Mini Kit™ without DNase I on column digestion, according to the manufactures protocol. Purified total RNA was resuspended in Dnase free, Rnase free, Protease free sterile water and quantified with NanoDrop™. A260/280 was above 2.0 (data not shown). RNA integrity was checked by gel electrophoresis. 500 ng of RNA was reverse transcribed into cDNA using the SuperScript™ III Reverse Transcriptase Kit™ (Thermo Fisher Scientific™), according to the manufacturer's protocol with random primer and Oligo(dT) 20 primer. Synthesized cDNA was treated with RNaseH. qRT-PCR was performed with BioRad™ CFX96 Real Time PCR Detection™ system using FastStart Essential DNA Green Master™ according to the manufacturer's instructions. TBP and B2M was used as housekeeping genes. Delta delta Cq method was used for analyzing relative expression of gene of interests with normalization to housekeeping genes.
(Quantitative PCR measures a nucleic acid by following its amplification.)

Assay [2] deals with NK-92 cells. Kind of assay: Lytic granule protein expression in NK-92 (flow cytometry, Western blot). The method, then: (§1) Total cell lysate was prepared with modified RIPA buffer (1M Tris-HCl (pH 7.5), 5M NaCl, 0.25% sodium deoxycholate, 10% NP-40 and 10 mM sodium fluoride) supplemented with ethylenediaminetetraacetic acid (EDTA)-free protease inhibitor (Roche™) and 2 mM sodium orthovanadate (Sigma-Aldrich™). Protein levels were quantified by bicinchoninic acid (BCA) assay. Protein lysate was separated by 10% SDS-PAGE and Western analysis was performed using primary antibodies listed in the tables below followed with horseradish peroxidase (HRP, 1:10,000, Jackson ImmunoResearch™) conjugated secondary antibodies.
(§2) NK-92 cells pre-treated with L598 (30 μM) or vehicle control were stimulated with K-562 tumor target cells [effector: target (E:T) at 1:1] or PMA/lonomycin (1 μg/mL each) or no-stimulation control with K-562 complete media, respectively. Anti-CD107a or LAMP-1 antibody (1:100, PE/Cy7 conjugated, clone H4A3, from BioLegend®) was added to cells at the start of degranulation assay. Golgi stop (containing Monensin, 1 μM) and Golgi plug (containing Brefeldin A, 4 μg/mL) were added to cells one hour after degranulation assay started and were kept until the end of the 6-hour-degranulation assay. Intracellular staining of GrB (1:40, PE conjugated, clone QA18A28, from BioLegend®) and PRF (1:40, FITC conjugated, clone B-D48, from BioLegend®) were performed with the Fixation/Permeabilization Solution Kit (BD® Biosciences) according to the manufacture's protocol. Cells were stained with fixable viability dye (1:2000) for 20 mins on ice and in dark, and blocked with FcBlock (1:20, diluted in 1× Perm/Wash buffer, Human truStain FcX from BioLegend®) for 5 mins at room temperature and in dark before intracellular staining. Cell gating and percentage of population quantification was based on no-stimulation control. For kinetics of degranulation assay, measurements were taken over three hours at 15 mins, 30 mins, 60 mins, 120 mins and 180 mins, with L598 (30 μM, three days) treated group and vehicle control group under the condition of tumor target cell K-562 stimulation (E: T at 1:1) or no stimulation. Intracellular cytolytic granule contents GrA, GrB and PRF were measured as mentioned previously.
A general note: In flow cytometry, cells or beads pass a laser one at a time.

Assay [3] deals with NK-92 cells. Kind of assay: IFN-γ ELISA of NK-92 supernatants. Particulars: 30 μM three days, with or without K-562 (E:T 6:1), vs control. Here is the method: Concentration of secreted IFN-γ in supernatants of NK-92 co-cultured with K-562 cells (E:T at 6:1) or no-stimulation control (K-562 cell media) for four hours was analyzed with Human IFN-γ ELISA Kit (R&D, DIF50) according to the manufacture's protocol. Results were normalized against IFN-γ secreted by K-562 alone treated with NK-92 cell media (no cytokine) for four hours.
Background: In an ELISA, binding on a coated surface is turned into a signal by an enzyme label.

Assay [4] concerns JAK/STAT signaling in NK-92 cells. Kind of assay: JAK/STAT signaling Western blot and IL-2 stimulation assay in NK-92. The method, then:
as §1
For cytokine stimulation assay, NK-92 cells were pre-treated with L598 (30 μM) or vehicle control for three days. Before IL-2 stimulation, NK-92 cells were washed once with serum depleted cell media (no IL-2) and were starved for six hours in presence of L598 or vehicle control. After starvation, NK-92 cells were stimulated with IL-2 across a gradient concentration ranging from 0 to 90 IU/mL for 15 mins at 37° C. After incubation, cells were directly lysed with 2× concentrated TNE buffer and then boiled in 1× Laemmli Buffer to prepare cell lysates. Two independent experiments were performed.

Assay [5] deals with NK-92 cells. Kind of assay: Multi-response analysis: cytokine production with degranulation in NK-92. Particulars: 30 μM three days, tumor cell or PMA and ionomycin stimulation. Here is the method: as §2, with “For kinetics of degranulation assay, measurements were taken over three hours at 15 mins, 30 mins, 60 mins, 120 mins and 180 mins, with L598 (30 μM, three days) treated group and vehicle control group under the condition of tumor target cell K-562 stimulation (E: T at 1:1) or no stimulation.” left out

The test system of assay [6] is SMAD2, SOCS1, SOCS3 in NK-92 cells. Kind of assay: Western blot of phospho-SMAD2, SOCS1 and SOCS3 in NK-92. Particulars: with inhibitor treatment. Here is the method:
as §1

Consider “7-bromo-6-phosphono(difluoro-methyl)-3-napthalenonitrile [L598]”, for which, in the assay on NK-92 cells [1] (30 μM three days), the “mRNA expression of perforin, granzyme A, granzyme B and granzyme K” value is given as “upregulated”. The “IFN-γ mRNA” value in the assay with NK-92 cells [1] (30 μM) is “upregulation”. Further, the “thresholds of maximal expression of perforin and granzyme B” value in the assay on NK-92 cells [2] (IL-2 titration, 30 μM) is listed as “upregulated”. Also, in the assay with NK-92 cells [2] (day three, IL-2 1250 IU/mL, 30 μM), the “fold increase of perforin and granzyme B MFI over vehicle control” value is given as “approximately two-fold”. Further, in the assay with NK-92 cells [2] (gradual increasing concentration, three days), the “protein expression of perforin and granzyme B” value is “upregulated in a dosage dependent manner”. In the assay with NK-92 cells [2] (inhibitor withdrawn three consecutive days), the “maximal expression of lytic granules after withdrawal, vs control” value is “similar”. Further, the “fold change of perforin and granzyme B after withdrawal” value in the assay on NK-92 cells [2] (inhibitor withdrawn three consecutive days, IL-2 titration) was “around one-fold”. Moreover, the “fold change of intracellular perforin and granzyme over control” value in the assay with NK-92 cells [2] (one-day treatment, IL-2 titration, 30 μM) is “started improving”. For the same substance, the “granzyme A protein expression” value in the assay with NK-92 cells [2] (with or without inhibitor treatment) is “relatively stable”. Moreover, the “granzyme B expression, treatment vs control group, without IL-2” value in the assay on NK-92 cells [2] (without IL-2 stimulation) is given as “almost no difference”. Besides, the IFN-γ protein secretion result in the assay with NK-92 cells [3] is “significantly more”. Also, in assay [4] (30 μM three days, starved six hours, IL-2 below 100 IU/mL, 15 mins), the “sensitivity to low dosage short-term IL-2 stimulation (phospho-STAT1, 3, 4, 5)” value is on record as “more sensitive”. Also, the “minimum IL-2 at which increased STAT5 phosphorylation is detectable” value in assay [4] (IL-2 stimulation 15 mins after starvation) is 30 IU/mL. Further, the “total protein expression of STAT members” value in assay [4] (IL-2 stimulation assay) was “might upregulate”. In addition, the “phosphorylation of STAT1, STAT3 and STAT4 under TGF-β1 and IL-2” value in assay [4] (TGF-β1 and IL-2 stimulation condition) is recorded as “retained enhanced phosphorylation”. Besides, the “basal phosphorylation of STAT1, STAT3 and STAT4” value in assay [4] (after six-hours serum and cytokine starvation in presence of inhibitor) was “increased”. The “phosphorylation of STAT2 and STAT6” value in assay [4] (regular cell culture, inhibitor titration, three days) was “relatively stable”. Also, the “phosphorylation of STAT1, STAT3, STAT4 and STAT5” value in assay [4] (regular cell culture, inhibitor titration, three days, dosage dependent) is recorded as “increased phosphorylation”. Also, the “percentages of CD107a+, IFN-γ+ and CD107a+, TNF-α+ cells” value in the assay with NK-92 cells [5] was “larger percentages”. In addition, in assay [6], the “TGF-β1 activated phosphorylation of SMAD2” value is on record as “did not change significantly”; the “expression of SOCS1 and SOCS3” value is “did not change”.
